Measured values reported in patent US7544773B2 (priority 2003, dated 2009).
No end group written: not given here.

Molecular target: Caf1M-Caf1, Caf1M-(Caf1)2 and Caf1M-(Caf1)3 complexes (Yersinia pestis, UniProt P26948)
Sequence (P26948 22-170 limits assumed, one chain of several): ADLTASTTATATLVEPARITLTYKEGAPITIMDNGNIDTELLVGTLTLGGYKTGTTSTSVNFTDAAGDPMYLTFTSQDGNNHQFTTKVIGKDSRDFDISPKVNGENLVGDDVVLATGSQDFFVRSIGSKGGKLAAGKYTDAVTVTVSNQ

Substance: ATATLV
- dissociation of the complexes to free Caf1M and Caf1: some dissociation
- formation of high molecular weight complexes (polymerization): polymerization was completely inhibited
